Here are results for 73 molecules from the supplement of paper PMC6723410.

Each structure is given as a SMILES string. Where “and” joins values, the source holds several entries; their conditions need not be identical. Equal entries are not always repeated.

For the first assay, the system named is GUMC-403. Put plainly: viability at highest tested concentration (max response) relative to DMSO (% of DMSO control); higher = less cytotoxic. The note with it: library / dose series: MIPE library, 11-point 1:3 dilution; top concentration 1.84 µM; 48 h. The method, boiled down: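 Conditionally reprogrammed GUMC-403 papilloma cells from a patient were plated at 700/well in 5 μL F + Y medium in 1536-well plates and left overnight at 37 °C. A pin tool then added 23 nL of library compounds as an 11-point 1:3 series, for 48 h. CellTiter-Glo luminescence was read on a ViewLux and scaled with vehicle wells set to 100% and empty wells to 0%. Each value gives viability at the highest tested concentration relative to vehicle control.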
For the molecule `CCC(=C/[C@H](C)C/C=C/C(C)=C/[C@@H](C)C(=O)[C@@H](C)[C@H](O)[C@@H](C)C/C(C)=C/C(=O)O)/C=C/[C@@H]1OC(=O)C=C[C@@H]1C`, the viability is 97.2.

The same assay, now with this note: library / dose series: MIPE library, 11-point 1:3 dilution; top concentration 4.61 µM; 48 h.
In turn, `CC(C)(C)[C@H](NC(=O)c1ccc(N)c(Cl)c1)C(=O)N1CCC[C@H]1C(=O)N[C@H](C#N)CC(=O)O` registered a viability of 131.

The same assay, now with this note: library / dose series: MIPE library, 11-point 1:3 dilution; top concentration 46.1 µM; 48 h.
In turn, `CCCCCC[C@H]1C(=O)O[C@H](C)[C@H](NC(=O)c2cccc(NC=O)c2O)C(=O)O[C@@H](C)[C@@H]1OC(=O)CC(C)C` had a viability of 97.1.

For the molecule `CN(C)Cc1c(C(=O)NCCOc2ccc(C(=O)NO)cc2)oc2ccccc12`, the viability was 82.5.

`CCC1(c2ccccc2)C(=O)NCNC1=O` gave a viability of 105.

As to `C=C[C@H]1CN2CCC1C[C@@H]2C(O)c1ccnc2ccc(OC)cc12` (stereo partly drawn), the viability amounted to 101.

For the molecule `Cc1ccccc1C(OCCN(C)C)c1ccccc1` (stereo not drawn), the viability stood at 127.

The molecule `CN1\C(=C(O)/C2=C(C=C(Cl)S2)[S+]1([O-])=O)C(=O)NC3=NC=CC=C3` yielded a viability of 67.8.

Take `COc1ccc([C@@H]2CC(=O)c3c(O)cc(O[C@@H]4O[C@H](CO[C@@H]5O[C@@H](C)[C@H](O)[C@@H](O)[C@H]5O)[C@@H](O)[C@H](O)[C@H]4O)cc3O2)cc1O`: the viability is 94.4 and 102.

On to `O=C1c2c(O)cc(O)cc2O[C@H](c2cc(O)c(O)c(O)c2)[C@H]1O`, for which the viability was 115.

Consider `O=C(O)CCCCC(CCSCc1ccccc1)SCc1ccccc1` (stereo not drawn), for which the viability came to 130.

Take `COc1cc(N2CCC(N3CCN(C)CC3)CC2)ccc1Nc1ncc(Cl)c(Nc2ccccc2[S+](=O)([O-])C(C)C)n1`: the viability worked out at 73.5.

`CN(C)C(=O)COC(=O)Cc1ccc(OC(=O)c2ccc(NC(=N)N)cc2)cc1` displayed a viability of 62.7.

In turn, `CCc1cc(Nc2nccc(-c3c(-c4ccc(OC)c(C(=O)Nc5c(F)cccc5F)c4)nc4ccccn34)n2)c(OC)cc1N1CCC(N2CCN([S+](C)(=O)[O-])CC2)CC1` gave a viability of 122.

In turn, `CC1Cc2ccccc2N1NC(=O)c1ccc(Cl)c([S+](N)(=O)[O-])c1` (stereo not drawn) yielded a viability of 105.

`Cn1c(=O)c2[nH]cnc2n(C)c1=O` yielded a viability of 120.

As for `CC[C@H](NC(=O)[C@H](C)NC)C(=O)N1C[C@@H](O)C[C@H]1Cc1c(-c2[nH]c3cc(F)ccc3c2C[C@@H]2C[C@H](O)CN2C(=O)[C@H](CC)NC(=O)[C@H](C)NC)[nH]c2cc(F)ccc12`, the viability stood at 108.

Molecule `CC\1=C/C=C\C=[N]1[Pt](N)(Cl)Cl` showed a viability of 136.

`NC(=O)c1ccc(-c2nc(-c3ccc4c(c3)OCCO4)c(-c3ccccn3)[nH]2)cc1` yielded a viability of 131.

Take `CC(C)=CCC/C(C)=C/CC/C(C)=C/CSc1ccccc1C(=O)O`: the viability was determined as 72.

Regarding `Clc1ccc(CCC(Cn2ccnc2)Sc2c(Cl)cccc2Cl)cc1` (stereo not drawn), the viability worked out at 97.

As for `CC(C)NCC(O)c1ccc(NS(C)(=O)=O)cc1` (stereo not drawn), the viability stood at 123.

Turning to `CN1C2CCC1CC(OC(=O)C(CO)c1ccccc1)C2` (stereo not drawn), the viability came out at 109.

In turn, `CC1=CC2=C(O1)C(=C3OC(=O)\C=C(C)/C3=C2)C` came in with a viability of 111.

`CC(C)(C(=O)NCC(F)(F)C(F)(F)F)C(=O)N[C@@H]1C(=O)Nc2ccccc2-c2ccccc21` yielded a viability of 88.8.

In turn, `C[C@H](NC(=O)Cc1cc(F)cc(F)c1)C(=O)N[C@@H]1C(=O)N(C)c2ccccc2-c2ccccc21` showed a viability of 108.

With `O=C1CCc2ccc(OCCCCN3CCN(c4cccc(Cl)c4Cl)CC3)cc2N1`, the viability was determined as 99.5.

As for `CC(=O)N[C@@H]1[C@@H](NC(N)=N)\C=C(/O[C@H]1[C@H](O)[C@H](O)CO)C(O)=O`, the viability was determined as 129.

`N#Cc1ccc(NC(=O)Nc2ccccc2Br)c2nn[nH]c12` came in with a viability of 129.

For `O=C1N\2CCC3=C([NH]C4=C3C=CC=C4)C2=N/C5=CC=CC=C15`, the viability was determined as 109.

In turn, `C/C(O)=C(\C#N)C(=O)Nc1ccc(C(F)(F)F)cc1` showed a viability of 94.3.

In turn, `CNC(=O)c1ccc(N2C(=S)N(c3ccc(C#N)c(C(F)(F)F)c3)C(=O)C23CCC3)cc1F` showed a viability of 81.8.

As for `COc1c(N2C[C@@H]3CCCN[C@@H]3C2)c(F)cc2c(=O)c(C(=O)O)cn(C3CC3)c12.Cl.O`, the viability was 133.

Molecule `CC[C@]1(O)C[C@H]2CN(CCC3=C([NH]C4=C3C=CC=C4)[C@@](C2)(C(=O)OC)C5=CC6=C(C=C5OC)N(C=O)[C@H]7[C@](O)([C@H](OC(C)=O)[C@]8(CC)\C=C/C[N@@]9CC[C@]67[C@H]89)C(=O)OC)C1` showed a viability of 105.

Molecule `CNCC(O)C(O)C(O)C(O)CO.O=C(O)c1ccc(-c2cc3cccnc3c(-c3ccc4nonc4c3)n2)cc1` gave a viability of 117.

Take `O=C(NCC1CCCCN1)c1cc(OCC(F)(F)F)ccc1OCC(F)(F)F` (stereo not drawn): the viability came to 87.2.

Take `OCCNC1CCCc2c1[nH]c1ccc(-c3ccccc3)cc21` (stereo not drawn): the viability turned out to be 107.

For the molecule `Cl.O[C@@H](CNC[C@H](O)[C@H]1CCc2cc(F)ccc2O1)[C@@H]1CCc2cc(F)ccc2O1`, the viability is 95.8.

`C/C(O)=C(\C#N)C(=O)Nc1cc(Br)ccc1Br` returned a viability of 101.

Regarding `OC1=CC=C(C=C1)C/2=C/C3=C(OC2)C=C(O)C=C3`, the viability was determined as 89.4.

For the molecule `COc1ccc(/C=C\c2cc(OC)c(OC)c(OC)c2)cc1NC(=O)[C@H](N)CO`, the viability was found to be 85.1.

Regarding `CC(C)C[C@H](CC(=O)O)C(=O)N[C@@H](Cc1c[nH]c2ccccc12)C(=O)N[C@@H](C)c1ccccc1`, the viability turned out to be 108.

For the molecule `COc1nc(C)cnc1N[S+](=O)([O-])c1cccnc1-c1ccc(-c2nnco2)cc1`, the viability is 138.

Turning to `Oc1cc2c(cc1O)C1c3ccc(O)c(O)c3OCC1(O)C2` (stereo not drawn), the viability is 129.

For `CC(O)C1C2C(C)\C(=C(/N2C1=O)C(O)=O)SC3CNC(C3)C(=O)N(C)C` (stereo not drawn), the viability was found to be 115.

Molecule `CCC(=O)N[C@H]1CC[C@H](C(=O)N(C)c2ccc(-c3nc4ccccc4o3)cc2)C1` gave a viability of 84.8.

`CC(C)(C)c1nc(-c2cccc(N[S+](=O)([O-])c3c(F)cccc3F)c2F)c(-c2ccnc(N)n2)s1` returned a viability of 109.

For the molecule `COc1ccc(CCC(=O)Nc2nc3ccc(Cl)cc3s2)cc1OC`, the viability was found to be 47.9.

For the molecule `CN1CCN(C2=Nc3cc(Cl)ccc3Nc3ccccc32)CC1`, the viability is 109.

For the molecule `CN(C)[C@@H](CCOc1cccc2ccccc12)c1ccccc1`, the viability stood at 92.3.

Molecule `C[C@@H](Oc1cc(-c2cnn(C3CCNCC3)c2)cnc1N)c1c(Cl)ccc(F)c1Cl` came in with a viability of 76.6.

In turn, `c1cc(N[C@@H]2CCNC2)nc(-c2cnc3ccc(-c4cn[nH]c4)cn23)c1` registered a viability of 122.

For `CC[C@H](C)C(=O)O[C@H]1C[C@H](O)\C=C2\C=C/[C@H](C)[C@H](CC[C@@H](O)C[C@@H](O)CC(O)=O)[C@@H]12`, the viability was 103.

Regarding `N=C(N)NC(=N)NCCc1ccccc1`, the viability came to 83.9.

In turn, `CC(C)c1cnn2c(NCc3ccccc3)cc(NCCCCCCN)nc12` yielded a viability of 72.8.

Turning to `O=C(Nc1cccc(C(F)(F)F)c1)Nc1cc([S+](=O)([O-])NC2CC2)ccc1-c1ccsc1`, the viability came out at 124.

In the case of `CC\1=C(C(=O)N(\C=C1)C2=CC=C(C=C2)C3=NC=CO3)/C4=CC5=CN=C(N)N=C5C=C4`, the viability was 79.7.

As for `CC(C)c1cccc(C(C)C)c1O`, the viability was 108.

For the molecule `O=C(CN1C(=O)C2(CCCC2)NC[C@H]1c1cc(F)cc(F)c1)Nc1ccc2c(c1)C[C@@]1(C2)C(=O)Nc2ncccc21`, the viability was determined as 148.

As for `C[C@H](NCc1ccc(OCc2cccc(F)c2)cc1)C(N)=O`, the viability came to 80.3.

In turn, `O=C(NCCCCN1CCOCC1)c1cc2ccccc2o1` had a viability of 106.

For the molecule `CCOc1cc(C(=O)Nc2ccc(Cl)c(-c3nc4ccccc4[nH]3)c2)cc(OCC)c1OCC`, the viability came to 90.5.

The molecule `COc1cccc2c1[C@]13CCN(CC4CC4)[C@H](C2)[C@]1(OC)CCC(=O)C3` returned a viability of 107.

In the case of `CCCn1c(=O)c2[nH]c(C34CC5CC3C[C@@H](C5)C4)nc2n(CCC)c1=O`, the viability was 122.

On to `CNC[C@H](O)[C@@H](O)[C@H](O)[C@H](O)CO`, for which the viability was found to be 136.

With `CC[C@H]1OC(=O)[C@H](C)[C@@H](O[C@H]2C[C@@](C)(OC)[C@@H](O)[C@H](C)O2)[C@H](C)[C@@H](O[C@@H]2O[C@@H](C)C[C@H](N(C)C)[C@H]2O)[C@](C)(O)C[C@@H](C)C(=O)[C@H](C)[C@@H](O)[C@]1(C)O`, the viability turned out to be 116.

Regarding `CC(C)(O)CCc1ccc(OCc2cc(-c3cccc(OC(F)F)c3)c3ncccc3c2)cc1`, the viability came to 143.

`CCCCCN(C)CCC(O)(P(=O)([O-])O)P(=O)(O)O` had a viability of 106.

As to `NC(=O)c1cccc2cn(-c3ccc([C@@H]4CCCNC4)cc3)nc12`, the viability came to 98.4.

The molecule `CCc1cc(-c2n[nH]c(C)c2-c2ccc3c(c2)OCCO3)c(O)cc1O` showed a viability of 88.7.

Turning to `COc1cc2nc(N(C)CCCNC(=O)C3CCCO3)nc(N)c2cc1OC` (stereo not drawn), the viability was found to be 116.

Molecule `CN(C)c1ccccc1CN1CCCN(Cc2ccccc2N(C)C)C1c1ccncc1` showed a viability of 97.4.

In the case of `CC(COc1ccccc1)N(CCCl)Cc1ccccc1` (stereo not drawn), the viability amounted to 122.
